Measured values reported in patent US4358607A, “Chloro-substituted benzospiro cyclopropane carboxylic acid” (American Cyanamid Co., priority 1978, dated 1982).

What was measured:
Assay type in all cases: in vivo
[1] = test system: Southern Armyworm [Spodoptera eridania]; assay: Southern Armyworm residual activity, 7 days; conditions: 7 days from original treatment
Experimental: (§1) Southern Armyworm [Spodoptera eridania (Cramer)].
(§2) A sieva lima bean plant with just the primary leaves expanded to 7.6 to 10 cm is dipped for 3 seconds with agitation in a 1000 ppm solution and set in a hood to dry. Following this, one leaf is placed in a 10 cm petri dish which has a moist filter paper in the bottom and 10 third-instar armyworm larvae about 1 cm long. The dish is covered and held at 26.7° C. After 2 days mortality counts and estimates of the amount of feeding are made. Compounds showing partial kill and/or inhibition of feeding are held for an extra day for further observations.
All compounds showing activity as defined above are retested, using the second leaf on the bean plant, after an interval of 7 days from original treatment, as an assay of residual activity.
The rating system employed in these tests is as follows: […]

[2] = test system: Southern Armyworm [Spodoptera eridania]; assay: Southern Armyworm test; conditions: 2 days
Experimental: as §1, §2
(§3) The rating system employed in these tests is as follows:
(§4) Compounds rated active (8 or 9) are further tested at reduced concentrations in 50% acetone: 50% water.

[3] = test system: Mexican Bean Beetle (Epilachna varivestis); assay: Mexican Bean Beetle test
From the text: Mexican Bean Beetle (Epilachna varivestis Mulsant)
Sieva lima bean plants (2 per pot) with primary leaves 7.6 to 10 cm long, are dipped in a 300 ppm solution and set in a hood to dry. One leaf is removed from the plant and placed in a 10 cm petri dish containing a moist filter paper on the bottom and 10 last-instar larvae (13 days from hatching).
The day after treatment, another leaf is removed from the plant and fed to the larvae after removing the remains of the original leaf. Two days after treatment, the third leaf is fed to the larvae, this usually being the last needed. The fourth leaf is used on the third day after treatment if the larvae have not finished feeding. The test is now set aside and held until adults have emerged, usually about 9 days after treatment began. After emergence is complete, each dish is examined for dead larvae, pupae or adults; deformed pupae or adults; larval-pupal intermediates or pupal-adult intermediates; or any other interference with normal molting, transformation and emergence of pupae or adults.
as §3, §4

[4] = test system: Two-Spotted Spider Mite [Tetranychus urticae]; assay: Phosphate-Resistant Strain of Two-Spotted Spider Mite test
Experimental: Phosphate-Resistant Strain of Two-Spotted Spider Mite [Tetranychus urticae (Koch)].
Sieva lima bean plants, with primary leaves 7.6 to 10 cm long, are infested with about 100 adult mites per leaf 4 hours before use in this test, in order to allow egg-laying before treatment. The infested plants are dipped for 3 seconds with agitation into a 300 ppm solution, and the plants set in the hood to dry. After 2 days at 26.7° C., the adult mite mortality is estimated on one leaf under a 10X stereoscopic microscope. The other leaf is left on the plant an additional 5 days and then examined at 10X power to estimate the kill of eggs and of newly-hatched nymphs, giving a measure of ovicidal and residual action, respectively.
as §3, §4

CC1(C)C(C(=O)OC(C#N)c2cccc(Oc3ccccc3)c2)C12C=C(Cl)c1ccccc12 (stereo not shown) [drawing 11]
Insecticidal activity rating, Southern Armyworms, 7-days [1]: 0 (0-4% killed or affected)
Insecticidal activity rating, Southern Armyworms ([2]; 10 ppm): 7 (71-85% mortality)
Insecticidal activity rating, Southern Armyworms ([2]; 100 ppm): 9 (100% mortality)
Insecticidal activity rating, Southern Armyworms ([2]; 1000 ppm): 9 (100% mortality)
Insecticidal activity rating, Mexican Bean Beetles ([3]; 10 ppm): 9 (100% mortality)
Insecticidal activity rating, Mexican Bean Beetles ([3]; 100 ppm): 9 (100% mortality)
Insecticidal activity rating, Mexican Bean Beetles ([3]; 300 ppm): 9 (100% mortality)
Activity rating, Phosphate Resistant Mites ([4]; 10 ppm): 0 (0-4% killed or affected)
Activity rating, Phosphate Resistant Mites ([4]; 100 ppm): 5 (51-60% mortality)
Activity rating, Phosphate Resistant Mites ([4]; 300 ppm): 8 (86-95% mortality)
